Data published in ChEMBL document CHEMBL1152361, “The application of phosphoramidate ProTide technology to the potent anti-HCV compound 4'-azidocytidine (R1479)” (Bioorg Med Chem Lett, 2009).
pEC50, pIC50: −log10 of the molar value.

Assays:
Hepatitis C virus [1] = test: Antiviral activity against HCV Con1 GT1b by replicon assay; type: functional, organism-based, Hepacivirus hominis
Hepatitis C virus [2] = test: Antiviral activity against HCV Con1 GT1b at 100 uM by replicon assay; type: functional, Hepacivirus hominis

| SMILES | pEC50 (Hepatitis C virus [1]; Hepatitis C virus, Con1 GT1b) | other results |
| --- | --- | --- |
| CC(C)(C)OC(=O)[C@H](Cc1ccccc1)NP(=O)(OC[C@@]1(N=[N+]=[N-])O[C@@H](n2ccc(N)nc2=O)[C@H](O)[C@@H]1O)Oc1ccccc1 (some centres not stated) |  | pIC50 (Hepatitis C virus [1]; Hepatitis C virus, Con1 GT1b): 5.17; inhibition at 100 µM (Hepatitis C virus [2]): 84% |
| C[C@H](NP(=O)(OC[C@@]1(N=[N+]=[N-])O[C@@H](n2ccc(N)nc2=O)[C@H](O)[C@@H]1O)Oc1cccc2ccccc12)C(=O)OCc1ccccc1 (some centres not stated) |  | pEC50 (Hepatitis C virus [1]): 6.02 |
| CC(C)(NP(=O)(OC[C@@]1(N=[N+]=[N-])O[C@@H](n2ccc(N)nc2=O)[C@H](O)[C@@H]1O)Oc1ccccc1)C(=O)OCc1ccccc1 (some centres not stated) | 5.04 |  |
| [N-]=[N+]=N[C@]1(COP(=O)(NCC(=O)OCc2ccccc2)Oc2ccccc2)O[C@@H](n2ccc(N)nc2=O)[C@H](O)[C@@H]1O (some centres not stated) | 5.68 |  |
| Cc1ccccc1OP(=O)(N[C@@H](C)C(=O)OCc1ccccc1)OC[C@@]1(N=[N+]=[N-])O[C@@H](n2ccc(N)nc2=O)[C@H](O)[C@@H]1O (some centres not stated) | 5.89 |  |
| C[C@@H](NP(=O)(OC[C@@]1(N=[N+]=[N-])O[C@@H](n2ccc(N)nc2=O)[C@H](O)[C@@H]1O)Oc1ccccc1)C(=O)OCc1ccccc1 (some centres not stated) | 5.66 |  |
| CC(C)C[C@H](NP(=O)(OC[C@@]1(N=[N+]=[N-])O[C@@H](n2ccc(N)nc2=O)[C@H](O)[C@@H]1O)Oc1ccccc1)C(=O)OC(C)C (some centres not stated) | < 4.00 |  |
| C[C@H](NP(=O)(OC[C@@]1(N=[N+]=[N-])O[C@@H](n2ccc(N)nc2=O)[C@H](O)[C@@H]1O)Oc1ccccc1)C(=O)Oc1ccccc1 (some centres not stated) | 5.54 |  |
| COc1ccccc1OP(=O)(N[C@@H](C)C(=O)OCc1ccccc1)OC[C@@]1(N=[N+]=[N-])O[C@@H](n2ccc(N)nc2=O)[C@H](O)[C@@H]1O (some centres not stated) | 5.64 |  |
| CCOC(=O)CN(C)P(=O)(OC[C@@]1(N=[N+]=[N-])O[C@@H](n2ccc(N)nc2=O)[C@H](O)[C@@H]1O)Oc1ccccc1 (some centres not stated) |  | pIC50 (Hepatitis C virus [1]; Hepatitis C virus, Con1 GT1b): 4.32; inhibition at 100 µM (Hepatitis C virus [2]): 72% |
| CCOC(=O)[C@H](C)NP(=O)(OC[C@@]1(N=[N+]=[N-])O[C@@H](n2ccc(N)nc2=O)[C@H](O)[C@@H]1O)Oc1ccc(C)cc1 (some centres not stated) | 5.54 |  |
| CCOC(=O)[C@@H](NP(=O)(OC[C@@]1(N=[N+]=[N-])O[C@@H](n2ccc(N)nc2=O)[C@H](O)[C@@H]1O)Oc1ccccc1)[C@@H](C)CC (some centres not stated) | < 4.00 |  |
| CCOC(=O)[C@H](C)NP(=O)(OC[C@@]1(N=[N+]=[N-])O[C@@H](n2ccc(N)nc2=O)[C@H](O)[C@@H]1O)Oc1ccccc1 (some centres not stated) | 6.42 |  |
| CCOC(=O)[C@H](Cc1ccccc1)NP(=O)(OC[C@@]1(N=[N+]=[N-])O[C@@H](n2ccc(N)nc2=O)[C@H](O)[C@@H]1O)Oc1ccccc1 (some centres not stated) | 4.96 |  |
| CCOC(=O)[C@H](CC(C)C)NP(=O)(OC[C@@]1(N=[N+]=[N-])O[C@@H](n2ccc(N)nc2=O)[C@H](O)[C@@H]1O)Oc1ccc(C)cc1 (some centres not stated) | 5.37 |  |
| CCOC(=O)CC[C@H](NP(=O)(OC[C@@]1(N=[N+]=[N-])O[C@@H](n2ccc(N)nc2=O)[C@H](O)[C@@H]1O)Oc1ccccc1)C(=O)OCC (some centres not stated) |  | pIC50 (Hepatitis C virus [1]; Hepatitis C virus, Con1 GT1b): 4.36; inhibition at 100 µM (Hepatitis C virus [2]): 74% |
| C[C@H](NP(=O)(OC[C@@]1(N=[N+]=[N-])O[C@@H](n2ccc(N)nc2=O)[C@H](O)[C@@H]1O)Oc1cccc(Cl)c1)C(=O)OCc1ccccc1 (some centres not stated) | 5.43 |  |
| COc1ccc(OP(=O)(N[C@@H](C)C(=O)OCc2ccccc2)OC[C@@]2(N=[N+]=[N-])O[C@@H](n3ccc(N)nc3=O)[C@H](O)[C@@H]2O)cc1 (some centres not stated) | < 4.00 |  |
| C[C@H](NP(=O)(OC[C@@]1(N=[N+]=[N-])O[C@@H](n2ccc(N)nc2=O)[C@H](O)[C@@H]1O)Oc1ccc(Cl)c(Cl)c1)C(=O)OCc1ccccc1 (some centres not stated) | 5.04 |  |
| CCOC(=O)[C@H](C)NP(=O)(OC[C@@]1(N=[N+]=[N-])O[C@@H](n2ccc(N)nc2=O)[C@H](O)[C@@H]1O)Oc1c(OC)cccc1OC (some centres not stated) | 5.39 |  |
| C[C@H](NP(=O)(OC[C@@]1(N=[N+]=[N-])O[C@@H](n2ccc(N)nc2=O)[C@H](O)[C@@H]1O)Oc1ccc(Cl)cc1)C(=O)OCc1ccccc1 (some centres not stated) | 5.21 |  |
| CC(C)OC(=O)C(C)(C)NP(=O)(OC[C@@]1(N=[N+]=[N-])O[C@@H](n2ccc(N)nc2=O)[C@H](O)[C@@H]1O)Oc1ccccc1 (some centres not stated) | 5.51 |  |
| CC(C)OC(=O)[C@H](Cc1ccccc1)NP(=O)(OC[C@@]1(N=[N+]=[N-])O[C@@H](n2ccc(N)nc2=O)[C@H](O)[C@@H]1O)Oc1ccccc1 (some centres not stated) | 5.54 |  |
| COc1cccc(OP(=O)(N[C@@H](C)C(=O)OCc2ccccc2)OC[C@@]2(N=[N+]=[N-])O[C@@H](n3ccc(N)nc3=O)[C@H](O)[C@@H]2O)c1 (some centres not stated) | 5.06 |  |
| CCOC(=O)[C@H](CC(C)C)NP(=O)(OC[C@@]1(N=[N+]=[N-])O[C@@H](n2ccc(N)nc2=O)[C@H](O)[C@@H]1O)Oc1ccc(Cl)cc1 (some centres not stated) | 5.60 |  |
| CCCCOC(=O)[C@H](C)NP(=O)(OC[C@@]1(N=[N+]=[N-])O[C@@H](n2ccc(N)nc2=O)[C@H](O)[C@@H]1O)Oc1ccccc1 (some centres not stated) | 4.96 |  |

| SMILES | pEC50 (Hepatitis C virus [1]; Hepatitis C virus, Con1 GT1b) | other results |
| --- | --- | --- |
| C[C@H](NP(=O)(OC[C@@]1(N=[N+]=[N-])O[C@@H](n2ccc(N)nc2=O)[C@H](O)[C@@H]1O)Oc1ccccc1Cl)C(=O)OCc1ccccc1 (some centres not stated) | 5.46 |  |
| COC(=O)[C@H](C)NP(=O)(OC[C@@]1(N=[N+]=[N-])O[C@@H](n2ccc(N)nc2=O)[C@H](O)[C@@H]1O)Oc1ccccc1 (some centres not stated) | 5.51 |  |
| C[C@H](NP(=O)(OC[C@@]1(N=[N+]=[N-])O[C@@H](n2ccc(N)nc2=O)[C@H](O)[C@@H]1O)Oc1ccccc1)C(=O)OCc1ccccc1 (some centres not stated) | 5.22 |  |
| CCOC(=O)[C@H](CC(C)C)NP(=O)(OC[C@@]1(N=[N+]=[N-])O[C@@H](n2ccc(N)nc2=O)[C@H](O)[C@@H]1O)Oc1ccc(Cl)c(Cl)c1 (some centres not stated) | 5.64 |  |
| CCOC(=O)[C@H](CC(C)C)NP(=O)(OC[C@@]1(N=[N+]=[N-])O[C@@H](n2ccc(N)nc2=O)[C@H](O)[C@@H]1O)Oc1ccccc1 (some centres not stated) | 4.96 |  |
| CCOC(=O)C1(NP(=O)(OC[C@@]2(N=[N+]=[N-])O[C@@H](n3ccc(N)nc3=O)[C@H](O)[C@@H]2O)Oc2ccccc2)CCCC1 (some centres not stated) |  | pIC50 (Hepatitis C virus [1]; Hepatitis C virus, Con1 GT1b): 4.25; inhibition at 100 µM (Hepatitis C virus [2]): 69% |
| CCCCOC(=O)[C@@H](C)NP(=O)(OC[C@@]1(N=[N+]=[N-])O[C@@H](n2ccc(N)nc2=O)[C@H](O)[C@@H]1O)Oc1ccccc1 (some centres not stated) | 6.03 |  |
| C[C@H](NP(=O)(OC[C@@]1(N=[N+]=[N-])O[C@@H](n2ccc(N)nc2=O)[C@H](O)[C@@H]1O)Oc1ccccc1)C(=O)OC(C)(C)C (some centres not stated) | 6.14 |  |
| CCC(C)OC(=O)[C@H](C)NP(=O)(OC[C@@]1(N=[N+]=[N-])O[C@@H](n2ccc(N)nc2=O)[C@H](O)[C@@H]1O)Oc1ccccc1 (some centres not stated) | 6.21 |  |
| CCOC(=O)[C@@H]1CCCN1P(=O)(OC[C@@]1(N=[N+]=[N-])O[C@@H](n2ccc(N)nc2=O)[C@H](O)[C@@H]1O)Oc1ccccc1 (some centres not stated) | < 4.00 |  |
| CCOC(=O)CCNP(=O)(OC[C@@]1(N=[N+]=[N-])O[C@@H](n2ccc(N)nc2=O)[C@H](O)[C@@H]1O)Oc1ccccc1 (some centres not stated) |  | pIC50 (Hepatitis C virus [1]; Hepatitis C virus, Con1 GT1b): 4.33; inhibition at 100 µM (Hepatitis C virus [2]): 77% |
| Cc1ccc(OP(=O)(N[C@@H](C)C(=O)OCc2ccccc2)OC[C@@]2(N=[N+]=[N-])O[C@@H](n3ccc(N)nc3=O)[C@H](O)[C@@H]2O)cc1 (some centres not stated) | 6.29 |  |
| CC(C)OC(=O)CNP(=O)(OC[C@@]1(N=[N+]=[N-])O[C@@H](n2ccc(N)nc2=O)[C@H](O)[C@@H]1O)Oc1ccccc1 (some centres not stated) |  | pEC50 (Hepatitis C virus [1]): 5.35 |
| CCCCCCCCCCCCOC(=O)[C@@H](C)NP(=O)(OC[C@@]1(N=[N+]=[N-])O[C@@H](n2ccc(N)nc2=O)[C@H](O)[C@@H]1O)Oc1ccccc1 (some centres not stated) | 4.52 |  |
| C[C@H](NP(=O)(OC[C@@]1(N=[N+]=[N-])O[C@@H](n2ccc(N)nc2=O)[C@H](O)[C@@H]1O)Oc1ccc(Br)cc1)C(=O)OCc1ccccc1 (some centres not stated) | 5.19 |  |
| CCOC(=O)[C@H](CC(C)C)NP(=O)(OC[C@@]1(N=[N+]=[N-])O[C@@H](n2ccc(N)nc2=O)[C@H](O)[C@@H]1O)Oc1ccc(OC)cc1 (some centres not stated) | 5.03 |  |
| CC(C)[C@H](NP(=O)(OC[C@@]1(N=[N+]=[N-])O[C@@H](n2ccc(N)nc2=O)[C@H](O)[C@@H]1O)Oc1ccccc1)C(=O)OCc1ccccc1 (some centres not stated) | 5.25 |  |
| CCOC(=O)[C@H](CCSC)NP(=O)(OC[C@@]1(N=[N+]=[N-])O[C@@H](n2ccc(N)nc2=O)[C@H](O)[C@@H]1O)Oc1ccccc1 (some centres not stated) | 4.74 |  |
| CCOC(=O)[C@@H](C)NP(=O)(OC[C@@]1(N=[N+]=[N-])O[C@@H](n2ccc(N)nc2=O)[C@H](O)[C@@H]1O)Oc1ccccc1 (some centres not stated) | 5.64 |  |
| CC(C)OC(=O)[C@H](C)NP(=O)(OC[C@@]1(N=[N+]=[N-])O[C@@H](n2ccc(N)nc2=O)[C@H](O)[C@@H]1O)Oc1ccccc1 (some centres not stated) | 6.00 |  |
| C[C@@H](NP(=O)(OC[C@@]1(N=[N+]=[N-])O[C@@H](n2ccc(N)nc2=O)[C@H](O)[C@@H]1O)Oc1ccccc1)C(=O)OC(C)(C)C (some centres not stated) | < 4.00 |  |
| CC(C)OC(=O)CNP(=O)(OC[C@@]1(N=[N+]=[N-])O[C@@H](n2ccc(N)nc2=O)[C@H](O)[C@@H]1O)Oc1ccccc1 (single isomer, unassigned; Diastereomer 1) |  | pEC50 (Hepatitis C virus [1]): 4.82 |
| C[C@H](NP(=O)(OC[C@@]1(N=[N+]=[N-])O[C@@H](n2ccc(N)nc2=O)[C@H](O)[C@@H]1O)Oc1ccc2ccccc2c1)C(=O)OCc1ccccc1 (single isomer, unassigned; diastereomer 1) |  | pEC50 (Hepatitis C virus [1]): 5.37 |
| C[C@H](NP(=O)(OC[C@@]1(N=[N+]=[N-])O[C@@H](n2ccc(N)nc2=O)[C@H](O)[C@@H]1O)Oc1cccc2ccccc12)C(=O)OCc1ccccc1 (single isomer, unassigned; diastereomer 2) | 5.92 |  |
| C[C@H](NP(=O)(OC[C@@]1(N=[N+]=[N-])O[C@@H](n2ccc(N)nc2=O)[C@H](O)[C@@H]1O)Oc1ccc2ccccc2c1)C(=O)OCc1ccccc1 (single isomer, unassigned; diastereomer 2) | 5.54 |  |
| [N-]=[N+]=N[C@]1(CO)O[C@@H](n2ccc(N)nc2=O)[C@H](O)[C@@H]1O [4'-AZIDOCYTIDINE] | 5.89 |  |
